Numbers after ± are expanded uncertainties.
Experiment: xn = mol fraction of the nth substance listed
Conditions: Liquid, Vibrating tube method

CCCCCCCCCC [decane] + CCCCCCCC
Conditions | mass density [kg/m3]
343.12 K, 23000 kPa, x2 = 0.7736 | 693.03 ± 0.56
343.12 K, 24000 kPa, x2 = 0.2801 | 707.17 ± 0.55
343.12 K, 24000 kPa, x2 = 0.5314 | 700.89 ± 0.56
343.12 K, 24000 kPa, x2 = 0.7736 | 693.84 ± 0.56
343.12 K, 25000 kPa, x2 = 0.2801 | 707.92 ± 0.55
343.12 K, 25000 kPa, x2 = 0.5314 | 701.69 ± 0.56
343.12 K, 25000 kPa, x2 = 0.7736 | 694.61 ± 0.57
343.13 K, 1000 kPa, x2 = 0.9623 | 664.48 ± 0.42
343.13 K, 2000 kPa, x2 = 0.9623 | 665.59 ± 0.43
343.13 K, 3000 kPa, x2 = 0.9623 | 666.77 ± 0.43
343.13 K, 4000 kPa, x2 = 0.9623 | 667.86 ± 0.44
343.13 K, 5000 kPa, x2 = 0.9623 | 668.95 ± 0.44
343.13 K, 6000 kPa, x2 = 0.9623 | 670.06 ± 0.45
343.13 K, 7000 kPa, x2 = 0.9623 | 671.17 ± 0.46
343.13 K, 8000 kPa, x2 = 0.9623 | 672.27 ± 0.46
343.13 K, 9000 kPa, x2 = 0.9623 | 673.35 ± 0.47
343.13 K, 10000 kPa, x2 = 0.9623 | 674.41 ± 0.47
343.13 K, 10990 kPa, x2 = 0.9623 | 675.48 ± 0.48
343.13 K, 12000 kPa, x2 = 0.9623 | 676.54 ± 0.49
343.13 K, 13000 kPa, x2 = 0.9623 | 677.56 ± 0.49
343.13 K, 14000 kPa, x2 = 0.9623 | 678.58 ± 0.5
343.13 K, 15000 kPa, x2 = 0.9623 | 679.6 ± 0.51
343.13 K, 16000 kPa, x2 = 0.9623 | 680.56 ± 0.51
343.13 K, 17000 kPa, x2 = 0.9623 | 681.54 ± 0.52
343.13 K, 18000 kPa, x2 = 0.9623 | 682.46 ± 0.53
343.13 K, 19000 kPa, x2 = 0.9623 | 683.41 ± 0.53
343.13 K, 20000 kPa, x2 = 0.9623 | 684.31 ± 0.54
343.13 K, 21000 kPa, x2 = 0.9623 | 685.19 ± 0.55
343.13 K, 22000 kPa, x2 = 0.9623 | 686.05 ± 0.56
343.13 K, 23000 kPa, x2 = 0.9623 | 686.9 ± 0.56
343.13 K, 24000 kPa, x2 = 0.9623 | 687.72 ± 0.57
343.13 K, 25000 kPa, x2 = 0.9623 | 688.5 ± 0.58
353.08 K, 1000 kPa, x2 = 0.9623 | 656.17 ± 0.42
353.08 K, 2000 kPa, x2 = 0.9623 | 657.39 ± 0.43
353.08 K, 3000 kPa, x2 = 0.9623 | 658.62 ± 0.43
353.08 K, 4000 kPa, x2 = 0.9623 | 659.85 ± 0.44
353.08 K, 5000 kPa, x2 = 0.9623 | 660.99 ± 0.45
353.08 K, 6000 kPa, x2 = 0.9623 | 662.16 ± 0.45
353.08 K, 7000 kPa, x2 = 0.9623 | 663.38 ± 0.46
353.08 K, 8000 kPa, x2 = 0.9623 | 664.55 ± 0.46
353.08 K, 9000 kPa, x2 = 0.9623 | 665.71 ± 0.47
353.08 K, 10000 kPa, x2 = 0.9623 | 666.85 ± 0.48
353.08 K, 10990 kPa, x2 = 0.9623 | 667.94 ± 0.48
353.08 K, 12000 kPa, x2 = 0.9623 | 669.1 ± 0.49
353.08 K, 13000 kPa, x2 = 0.9623 | 670.16 ± 0.5
353.08 K, 14000 kPa, x2 = 0.9623 | 671.22 ± 0.5
353.08 K, 15000 kPa, x2 = 0.9623 | 672.32 ± 0.51
353.08 K, 16000 kPa, x2 = 0.9623 | 673.37 ± 0.52
353.08 K, 17000 kPa, x2 = 0.9623 | 674.4 ± 0.52
353.08 K, 18000 kPa, x2 = 0.9623 | 675.38 ± 0.53
353.08 K, 19000 kPa, x2 = 0.9623 | 676.37 ± 0.54
353.08 K, 20000 kPa, x2 = 0.9623 | 677.3 ± 0.55
353.08 K, 21000 kPa, x2 = 0.9623 | 678.26 ± 0.55
353.08 K, 22000 kPa, x2 = 0.9623 | 679.19 ± 0.56
353.08 K, 23000 kPa, x2 = 0.9623 | 680.04 ± 0.57
353.08 K, 24000 kPa, x2 = 0.9623 | 680.91 ± 0.58
353.08 K, 25000 kPa, x2 = 0.9623 | 681.75 ± 0.58
353.12 K, 1000 kPa, x2 = 0.0616 | 683.44 ± 0.42
353.12 K, 1000 kPa, x2 = 0.2801 | 678.06 ± 0.42
353.12 K, 1000 kPa, x2 = 0.5314 | 670.91 ± 0.42
353.12 K, 1000 kPa, x2 = 0.7736 | 663 ± 0.42
353.12 K, 2000 kPa, x2 = 0.0616 | 684.54 ± 0.42
353.12 K, 2000 kPa, x2 = 0.2801 | 679.14 ± 0.42
353.12 K, 2000 kPa, x2 = 0.5314 | 672.1 ± 0.42
353.12 K, 2000 kPa, x2 = 0.7736 | 664.25 ± 0.43
353.12 K, 3000 kPa, x2 = 0.0616 | 685.62 ± 0.42
353.12 K, 3000 kPa, x2 = 0.2801 | 680.24 ± 0.43
353.12 K, 3000 kPa, x2 = 0.5314 | 673.23 ± 0.43
353.12 K, 3000 kPa, x2 = 0.7736 | 665.41 ± 0.43
353.12 K, 4000 kPa, x2 = 0.0616 | 686.69 ± 0.43
353.12 K, 4000 kPa, x2 = 0.2801 | 681.31 ± 0.43
353.12 K, 4000 kPa, x2 = 0.5314 | 674.37 ± 0.43
353.12 K, 4000 kPa, x2 = 0.7736 | 666.6 ± 0.44
353.12 K, 5000 kPa, x2 = 0.0616 | 687.76 ± 0.43
353.12 K, 5000 kPa, x2 = 0.2801 | 682.4 ± 0.44
353.12 K, 5000 kPa, x2 = 0.5314 | 675.52 ± 0.44
353.12 K, 5000 kPa, x2 = 0.7736 | 667.77 ± 0.44
353.12 K, 6000 kPa, x2 = 0.0616 | 688.82 ± 0.44
353.12 K, 6000 kPa, x2 = 0.2801 | 683.48 ± 0.44
353.12 K, 6000 kPa, x2 = 0.5314 | 676.65 ± 0.44
353.12 K, 6000 kPa, x2 = 0.7736 | 668.95 ± 0.45
353.12 K, 7000 kPa, x2 = 0.0616 | 689.85 ± 0.44
353.12 K, 7000 kPa, x2 = 0.2801 | 684.52 ± 0.45
353.12 K, 7000 kPa, x2 = 0.5314 | 677.77 ± 0.45
353.12 K, 7000 kPa, x2 = 0.7736 | 670.08 ± 0.45
353.12 K, 8000 kPa, x2 = 0.0616 | 690.88 ± 0.45
353.12 K, 8000 kPa, x2 = 0.2801 | 685.57 ± 0.45
353.12 K, 8000 kPa, x2 = 0.5314 | 678.86 ± 0.46
353.12 K, 8000 kPa, x2 = 0.7736 | 671.21 ± 0.46
353.12 K, 9000 kPa, x2 = 0.0616 | 691.9 ± 0.45
353.12 K, 9000 kPa, x2 = 0.2801 | 686.58 ± 0.46
353.12 K, 9000 kPa, x2 = 0.5314 | 679.93 ± 0.46
353.12 K, 9000 kPa, x2 = 0.7736 | 672.31 ± 0.47
353.12 K, 10000 kPa, x2 = 0.0616 | 692.88 ± 0.46
